The assay concerns the target histamine H4 receptor (Homo sapiens, UniProt Q9H3N8). Briefly: In vitro histamine H4 potency in FLIPR (Ca2+ flux, HEK-293 cells coexpressing Gαqi5). It is filed as cell-based. Also noted: expressed in transfected cells. The conditions noted are these: Kb for antagonists and inverse agonists, EC50 for partial agonists. The text has this: There are many methods available to show the effectiveness of compounds as histamine H4 receptor ligands. Histamine H4 receptors from mammalian species have been cloned. Methods to clone, express, and assess the potency and functional activity of such cloned genes are well known to those skilled in the art of molecular biology. […] Before testing, cells are loaded with a Ca^+2 sensitive fluorescent dye, in this case Fluo-4. In the case of partial agonist or agonist ligands, addition of compound to the cells leads to the increase in intracellular Ca^+2 which is detected by FLIPR (Fluorescence Imaging Plate Reader; Molecular Devices, Sunnyvale, Calif.) technology. […] The fluorescence intensities measured before addition of the test compound are subtracted from the fluorescence intensities at later time points. Peak response values determined at each concentration of ligand are expressed as a percentage of the response obtained with the full agonist histamine. Concentration versus response data are analyzed to obtain compound potency as Kb values for antagonists and inverse agonists and as EC50 values for partial agonists.

Results on 33 molecules are retold here after patent publication US8735411B2, “Macrocyclic benzofused pyrimidine derivatives” (AbbVie Inc., priority 2006, dated 2014).

Chain of histamine H4 receptor (Q9H3N8 whole entry): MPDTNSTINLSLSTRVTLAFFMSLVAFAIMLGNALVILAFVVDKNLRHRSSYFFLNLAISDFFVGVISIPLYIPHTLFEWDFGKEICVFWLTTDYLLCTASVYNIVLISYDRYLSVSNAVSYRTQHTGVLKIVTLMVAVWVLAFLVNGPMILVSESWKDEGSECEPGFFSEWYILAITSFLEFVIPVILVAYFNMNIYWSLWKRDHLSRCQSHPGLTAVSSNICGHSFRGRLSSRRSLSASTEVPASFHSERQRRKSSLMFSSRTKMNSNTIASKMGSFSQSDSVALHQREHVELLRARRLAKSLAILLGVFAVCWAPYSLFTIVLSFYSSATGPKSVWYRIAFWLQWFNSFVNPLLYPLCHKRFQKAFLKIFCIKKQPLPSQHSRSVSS

`Nc1nc2c(c(N3CC4(CCCNC4)C3)n1)CCCc1ccccc1-2` [Example 77, 4-(2,6-Diaza-spiro[3.5]non-2-yl)-6,7-dihydro-5H-benzo[6,7]cyclohepta[1,2-d]pyrimidin-2-ylamine] had a Potency of 9333 nM.

Take `Nc1nc2c(c(N3CC4(CCCCN4)C3)n1)CCCc1ccccc1-2` [Example 78, 4-(2,5-Diaza-spiro[3.5]non-2-yl)-6,7-dihydro-5H-benzo[6,7]cyclohepta[1,2-d]pyrimidin-2-ylamine]: the Potency came to 891 nM. As for `Nc1nc2c(c(N3CC4CCNCC4C3)n1)CCCc1ccccc1-2` (stereo not drawn) [Example 79, 4-(Octahydro-pyrrolo[3,4-c]pyridin-2-yl)-6,7-dihydro-5H-benzo[6,7]cyclohepta[1,2-d]pyrimidin-2-ylamine], the Potency was 89 nM. For `Nc1nc2c(c(N3CCN4CCCC4C3)n1)CCCc1ccccc1-2` (stereo not drawn) [Example 80, 4-(Octahydro-pyrrolo[1,2-a]pyrazin-2-yl)-6,7-dihydro-5H-benzo[6,7]cyclohepta[1,2-d]pyrimidin-2-ylamine] the value was 178 nM; for `Nc1nc2c(c(N3CC4CNCC3C4)n1)CCCc1ccccc1-2` (stereo not drawn) [Example 81, 4-(3,6-Diaza-bicyclo[3.2.1]oct-6-yl)-6,7-dihydro-5H-benzo[6,7]cyclohepta[1,2-d]pyrimidin-2-ylamine], 4169 nM. The molecule `Nc1nc2c(c(N3CCC4CC3CN4)n1)CCCc1ccccc1-2` (stereo not drawn) [Example 82, 4-(2,6-Diaza-bicyclo[3.2.1]oct-2-yl)-6,7-dihydro-5H-benzo[6,7]cyclohepta[1,2-d]pyrimidin-2-ylamine] came in with a Potency of 2042 nM. As to `CC(=O)Nc1nc2c(c(N3CCNCC3)n1)CCCc1ccccc1-2` [Example 83, N-(4-Piperazin-1-yl-6,7-dihydro-5H-benzo[6,7]cyclohepta[1,2-d]pyrimidin-2-yl)-acetamide], the Potency is 2951 nM. For `O=C(Nc1nc2c(c(N3CCNCC3)n1)CCCc1ccccc1-2)c1ccccc1` [Example 84, N-(4-Piperazin-1-yl-6,7-dihydro-5H-benzo[6,7]cyclohepta[1,2-d]pyrimidin-2-yl)-benzamide] the value was 3388 nM; for `CN1CCC2CN(c3nc(N)nc4c3CCCc3ccccc3-4)CC2C1` (stereo not drawn) [Example 85, 4-(5-Methyl-octahydro-pyrrolo[3,4-c]pyridin-2-yl)-6,7-dihydro-5H-benzo[6,7]cyclohepta[1,2-d]pyrimidin-2-ylamine], 85 nM; for `CN1CC2CC(C1)N(c1nc(N)nc3c1CCCc1ccccc1-3)C2` (stereo not drawn) [Example 86, 4-(3-Methyl-3,6-diaza-bicyclo[3.2.1]oct-6-yl)-6,7-dihydro-5H-benzo[6,7]cyclohepta[1,2-d]pyrimidin-2-ylamine], 891 nM. For `CN(C)CC(=O)Nc1nc2c(c(N3CCNCC3)n1)CCCc1ccccc1-2` [Example 87, 2-Dimethylamino-N-(4-piperazin-1-yl-6,7-dihydro-5H-benzo[6,7]cyclohepta[1,2-d]pyrimidin-2-yl)-acetamide] the value was 174 nM; for `CNCC(=O)Nc1nc2c(c(N3CCNCC3)n1)CCCc1ccccc1-2` [Example 88, 2-Methylamino-N-(4-piperazin-1-yl-6,7-dihydro-5H-benzo[6,7]cyclohepta[1,2-d]pyrimidin-2-yl)-acetamide], 209 nM. In the case of `NCC(=O)Nc1nc2c(c(N3CCNCC3)n1)CCCc1ccccc1-2` [Example 89, 2-Amino-N-(4-piperazin-1-yl-6,7-dihydro-5H-benzo[6,7]cyclohepta[1,2-d]pyrimidin-2-yl)-acetamide], the Potency is given as 89 nM. `CNC(=O)Nc1nc2c(c(N3CCNCC3)n1)CCCc1ccccc1-2` [Example 90, 1-Methyl-3-(4-piperazin-1-yl-6,7-dihydro-5H-benzo[6,7]cyclohepta[1,2-d]pyrimidin-2-yl)-urea] displayed a Potency of 25119 nM. In turn, `NCCCC(=O)Nc1nc2c(c(N3CCNCC3)n1)CCCc1ccccc1-2` [Example 91, 4-Amino-N-(4-piperazin-1-yl-6,7-dihydro-5H-benzo[6,7]cyclohepta[1,2-d]pyrimidin-2-yl)-butyramide] yielded a Potency of 550 nM.

Molecule `c1cncc(CNc2nc3c(c(N4CC5CCCNC5C4)n2)CCCc2ccccc2-3)c1` (stereo not drawn) [Example 92, 6-(2-pyridin-3-ylmethylamino-6,7-dihydro-5H-benzo[6,7]cyclohepta[1,2-d]pyrimidin-4-yl)octahydro-1H-pyrrolo[3,4-b]pyridine] gave a Potency of 2570 nM.

As to `NCCC(=O)Nc1nc2c(c(N3CCNCC3)n1)CCCc1ccccc1-2` [Example 93, 3-Amino-N-(4-piperazin-1-yl-6,7-dihydro-5H-benzo[6,7]cyclohepta[1,2-d]pyrimidin-2-yl)-propionamide], the Potency is 135 nM. In turn, `Nc1nc2c(c(N3CCNCCNCC3)n1)CCCc1ccccc1-2` [Example 94, 4-[1,4,7]Triazonan-1-yl-6,7-dihydro-5H-benzo[6,7]cyclohepta[1,2-d]pyrimidin-2-ylamine] came in with a Potency of 9.1 nM. The same measure for `CN(C)CCNc1nc2c(c(N3CCNCC3)n1)CCCc1ccccc1-2` [Example 95, N,N-Dimethyl-N′-(4-piperazin-1-yl-6,7-dihydro-5H-benzo[6,7]cyclohepta[1,2-d]pyrimidin-2-yl)-ethane-1,2-diamine]: 1413 nM.

`Nc1nc2c(c(N3CC4CCCNC4C3)n1)CCSc1ccccc1-2` (stereo not drawn) [Example 96, 4-(Octahydro-pyrrolo[3,4-b]pyridin-6-yl)-5,6-dihydro-7-thia-1,3-diaza-dibenzo[a,c]cyclohepten-2-ylamine] gave a Potency of 19 nM.

With `CN[C@@H]1CCN(c2nc(N)nc3c2CCCc2cc4c(cc2-3)CCCC4)C1` [Example 97, 4-((R)-3-Methylamino-pyrrolidin-1-yl)-6,7,9,10,11,12-hexahydro-5H-1,3-diaza-benzo[3,4]cyclohepta[1,2-b]naphthalen-2-ylamine], the Potency was found to be 29 nM. The molecule `Nc1nc2c(c(N3CC4CCCNC4C3)n1)CCCc1cc3c(cc1-2)CCCC3` (stereo not drawn) [Example 98, 4-(Octahydro-pyrrolo[3,4-b]pyridin-6-yl)-6,7,9,10,11,12-hexahydro-5H-1,3-diaza-benzo[3,4]cyclohepta[1,2-b]naphthalen-2-ylamine] showed a Potency of 52 nM. `Nc1nc2c(c(N3CCNCC3)n1)CCCc1cc3c(cc1-2)CCCC3` [Example 99, 4-Piperazin-1-yl-6,7,9,10,11,12-hexahydro-5H-1,3-diaza-benzo[3,4]cyclohepta[1,2b]naphthalen-2-ylamine] yielded a Potency of 25 nM. Take `CN[C@@H]1CCN(c2nc(N)nc3c2CCOc2cc(I)ccc2-3)C1` [Example 100, 9-Iodo-4-((R)-3-methylamino-pyrrolidin-1-yl)-5,6-dihydro-7-oxa-1,3-diaza-dibenzo[a,c]cyclohepten-2-ylamine]: the Potency is 120 nM.

Turning to `Nc1nc2c(c(N3CCNCC3)n1)CCOc1cc(I)ccc1-2` [Example 101, 9-Iodo-4-piperazin-1-yl-5,6-dihydro-7-oxa-1,3-diaza-dibenzo[a,c]cyclohepten-2-ylamine], the Potency was 269 nM.

With `Nc1nc2c(c(N3CC4CCCNC4C3)n1)CCOc1cc(I)ccc1-2` (stereo not drawn) [Example 102, 9-Iodo-4-octahydro-pyrrolo[3,4-b]pyridin-6-yl-5,6-dihydro-7-oxa-1,3-diaza-dibenzo[a,c]cyclohepten-2-ylamine], the Potency came out at 45 nM. Molecule `c1ccc2c(c1)CCCc1c-2nc(N2CCNCC2)nc1N1CCNCC1` [Example 103, 2,4-Di-piperazin-1-yl-6,7-dihydro-5H-benzo[6,7]cyclohepta[1,2-d]pyrimidine] showed a Potency of 351 nM. In turn, `N#Cc1ccc2c(c1)OCCc1c-2nc(N)nc1N1CC2CCCNC2C1` (stereo not drawn) [Example 104, 2-Amino-4-octahydro-pyrrolo[3,4-b]pyridin-6-yl-5,6-dihydro-7-oxa-1,3-diaza-dibenzo[a,c]cycloheptene-9-carbonitrile] displayed a Potency of 141 nM. For `Nc1nc2c(c(N3CC4CCCNC4C3)n1)CCOc1cc(-c3ccccc3)ccc1-2` (stereo not drawn) [Example 105, 4-Octahydro-pyrrolo[3,4-b]pyridin-6-yl-9-phenyl-5,6-dihydro-7-oxa-1,3-diaza-dibenzo[a,c]cyclohepten-2-ylamine] the value was 83 nM.

Molecule `Nc1nc2c(c(N3CC4CCCNC4C3)n1)CCOc1cc(-c3cccnc3)ccc1-2` (stereo not drawn) [Example 106, 4-Octahydro-pyrrolo[3,4-b]pyridin-6-yl-9-pyridin-3-yl-5,6-dihydro-7-oxa-1,3-diaza-dibenzo[a,c]cyclohepten-2-ylamine] registered a Potency of 140 nM. Molecule `CN[C@@H]1CCN(c2nc(N)nc3c2SCCc2ccccc2-3)C1` [Example 107, 4-((R)-3-Methylamino-pyrrolidin-1-yl)-6,7-dihydro-5-thia-1,3-diaza-dibenzo[a,c]cyclohepten-2-ylamine] gave a Potency of 11 nM.

Molecule `COC(=O)c1ccc2c(c1)OCCc1c-2nc(N)nc1N1CC2CCCNC2C1` (stereo not drawn) [Example 108, 2-Amino-4-octahydro-pyrrolo[3,4-b]pyridin-6-yl-5,6-dihydro-7-oxa-1,3-diaza-dibenzo[a,c]cycloheptene-9-carboxylic acid methyl ester] came in with a Potency of 53 nM. `Nc1nc2c(c(N3CCNCC3)n1)SCCc1ccccc1-2` [Example 109, 4-Piperazin-1-yl-6,7-dihydro-5-thia-1,3-diaza-dibenzo[a,c]cyclohepten-2-ylamine] gave a Potency of 87 nM.
